Here are results for eight molecules from ChEMBL document CHEMBL1201862, “PubChem BioAssay data set” (2004).

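These data come from cells grown in 96-well plates and exposed to compound for 48 hours at five concentrations. GI50 marks 50% less growth.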 Calls of active or inactive are those of the source. No stated cut-off is given here; in the data, active = GI50 up to about 1.1 µM and inactive = higher. Some results are limits rather than exact numbers.

Holding throughout (assay): inhibition of tumour cell growth, NCI panel, 48 h
Assay [1] deals with EKVX.
For assay [2], the system named is OVCAR-4.
Assay [3] relates to HT-29.
Assay [4] has as its system MCF7.
The subject of assay [5] is SF-539.
The test system of assay [6] is BT-549.
The subject of assay [7] is HCT-15.
Assay [8] relates to CAKI-1.
The test system of assay [9] is MDA-MB-435.
The subject of assay [10] is 786-0.
Assay [11] deals with HOP-92.
The test system of assay [12] is NCI-H460.
In assay [13] the test system is RPMI-8226.
Assay [14] has as its system TK-10.
The test system of assay [15] is T47D.
Assay [16] relates to KM12.
Assay [17] deals with IGROV-1.
In assay [18] the test system is RXF 393.
Assay [19] relates to SK-MEL-2.
The subject of assay [20] is NCI-H522.

For the molecule `CCOC(=O)C(NC(=O)c1ccccc1)(Nc1ccc(S(=O)(=O)Nc2nc(C)cc(C)n2)cc1)C(F)(F)F` (stereo not drawn), the GI50 in [1], in [2], in assay [3], in assay [4], in [5] and in [6] was > 100 µM (inactive) each time. Further, the GI50 in [7] is over 100 µM; in assay [8], > 100 µM (inactive); in [9], > 100 µM (inactive); in [10] it was > 100 µM (inactive); in [11] it was > 100 µM (inactive); in assay [12], > 100 µM (inactive). The GI50 in assay [13], in assay [14], in [15], in assay [16], in assay [17] and in assay [18] was > 100 µM (inactive) throughout. Also, the GI50 in assay [19] was > 100 µM (inactive).

Regarding `CO[C@H]1O[C@@H]2CO[C@@H](c3ccccc3)O[C@H]2[C@@H]2CC=CCC[C@]12O`, the GI50 in [20] is 16.5 µM (inactive); in [1], 36.8 µM (inactive); in [2], 57.3 µM (inactive); in [3], 40 µM (inactive); in [4], 42.6 µM (inactive); in assay [6], 24.6 µM (inactive). In addition, the GI50 was 39.6 µM in assay [7]; > 100 µM (inactive) in assay [8]; 45.7 µM (inactive) in assay [9]; 61.2 µM (inactive) in [10]; 49.8 µM (inactive) in [11]; 35.7 µM (inactive) in assay [12]. Moreover, the GI50 is 23.7 µM (inactive) in assay [13]; 93.5 µM (inactive) in [14]; 94 µM (inactive) in assay [15]; 65.3 µM (inactive) in assay [16]; 59.6 µM (inactive) in assay [17]; 62.1 µM (inactive) in assay [18]. For the same molecule, the GI50 in assay [19] was 65.5 µM (inactive).

As for `CC(NC(=O)/C(=C/c1ccccc1)NC(=O)c1ccccc1)C(=O)O` (stereo not drawn), the GI50 in assay [20] is > 100 µM (inactive); in assay [1], 40.4 µM (inactive); in assay [3], > 100 µM (inactive); in assay [4] it was 54.2 µM (inactive); in assay [5], 20.6 µM (inactive); in assay [6], > 100 µM (inactive). The GI50 in assay [7] is 87.9 µM; in assay [8], 29.7 µM (inactive); in assay [9], 38.8 µM (inactive); in assay [10], 39.5 µM (inactive); in assay [11], 33.1 µM (inactive); in assay [12] it was > 100 µM (inactive). Further, the GI50 in assay [13] is > 100 µM (inactive); in assay [15], 29.6 µM (inactive); in assay [16], 6.59 µM (inactive); in [17], 21.3 µM (inactive); in assay [18], > 100 µM (inactive); in assay [19], > 100 µM (inactive).

As to `C=C1C(=O)OC2CCN3CC=C(COC(=O)C(C)(O)C4(CO4)C1C)C23` (stereo not drawn), the GI50 in [20], in assay [1], in assay [2], in assay [3], in assay [4] and in assay [6] was > 100 µM (inactive) in each case. Also, the GI50 in assay [7] was over 100 µM; in assay [8], > 100 µM (inactive); in assay [9] it was > 100 µM (inactive); in assay [10], > 100 µM (inactive); in [11], > 100 µM (inactive); in assay [12], > 100 µM (inactive). For the same molecule, the GI50 in assay [14], in assay [15], in assay [16], in assay [17], in assay [18] and in assay [19] was > 100 µM (inactive) each time.

For the molecule `COC(=O)C1=C(O)C(C(=O)OC)[C@]2(O)[C@H](C(=O)OC)[C@H]1C[C@@H](c1c(Cl)cccc1Cl)[C@H]2C(=O)OC` (stereo partly drawn), the GI50 was 4.25 µM (inactive) in assay [1]; 3.6 µM (inactive) in assay [2]; 2.33 µM (inactive) in assay [3]; 3.24 µM (inactive) in [4]; 1.93 µM (inactive) in assay [5]; 1.88 µM (inactive) in assay [6]. The GI50 in assay [7] was 1.74 µM; in [8], 2.83 µM (inactive); in [9] it was 1.33 µM (inactive); in assay [10], 1.73 µM (inactive); in assay [11], 2.69 µM (inactive); in assay [12] it was 2.31 µM (inactive). Besides, the GI50 in assay [13] was 1.51 µM (inactive); in assay [15], 3.79 µM (inactive); in [16], 2.55 µM (inactive); in [17] it was 2.16 µM (inactive); in assay [18], 1.75 µM (inactive); in assay [19], 1.49 µM (inactive).

For the molecule `COC(c1ccsc1)C(C#N)(C#N)/N=C/c1ccsc1` (stereo not drawn), the GI50 in assay [20] is 6.73 µM (inactive); in assay [1] it was 14.2 µM (inactive); in assay [2], 20.9 µM (inactive); in assay [3], 12.5 µM (inactive); in assay [4], 2.18 µM (inactive); in assay [5], 15.7 µM (inactive). Besides, the GI50 in assay [6] was 17 µM (inactive); in assay [7] it was 13 µM; in [8] it was 4.68 µM (inactive); in [9], 15.5 µM (inactive); in [10], 17.3 µM (inactive); in [11], 12 µM (inactive). The GI50 is 18.4 µM (inactive) in assay [12]; 17.7 µM (inactive) in assay [14]; 13.9 µM (inactive) in [15]; 16.7 µM (inactive) in [16]; 17.1 µM (inactive) in assay [17]; 12.7 µM (inactive) in [18]. The GI50 in assay [19] is 19 µM (inactive).

Regarding `C/C=C/C(C#N)(Cc1ccccc1)OP1(=O)OC(c2ccccc2)C(C)N1C` (stereo not drawn), the GI50 in [20] is 50.1 µM (inactive); in assay [1] it was 71.6 µM (inactive); in assay [3], 69.2 µM (inactive); in assay [4] it was 54.2 µM (inactive); in [5], > 100 µM (inactive); in assay [6] it was 90.2 µM (inactive). For the same molecule, the GI50 in assay [7] is 79.6 µM; in assay [8], > 100 µM (inactive); in assay [9] it was 48.4 µM (inactive); in assay [10] it was > 100 µM (inactive); in assay [11], 73.3 µM (inactive); in assay [12] it was 43.6 µM (inactive). Besides, the GI50 in [13] was 33 µM (inactive); in [14] it was > 100 µM (inactive); in assay [15] it was 47.9 µM (inactive); in [16], 45.6 µM (inactive); in assay [17] it was 95.3 µM (inactive); in [18], > 100 µM (inactive). For the same molecule, in [19], the GI50 is > 100 µM (inactive).

As for `COc1cccc(Cc2cc(=O)c3ccc(C)nc3[nH]2)c1`, the GI50 was 13.2 µM (inactive) in assay [20]; > 100 µM (inactive) in [1]; > 100 µM (inactive) in assay [3]; > 100 µM (inactive) in assay [4]; 94.8 µM (inactive) in assay [6]; over 100 µM in assay [7]. Further, the GI50 in assay [8] is > 100 µM (inactive); in assay [9] it was > 100 µM (inactive); in assay [10], > 100 µM (inactive); in assay [11], > 100 µM (inactive); in [12], > 100 µM (inactive); in assay [13] it was 48.6 µM (inactive). The GI50 in [14], in assay [15], in assay [16], in assay [17], in assay [18] and in assay [19] was > 100 µM (inactive) in each case.
